Molecular target: GLP-1 Receptor (Homo sapiens (Human), UniProt P43220)
Experiment: GLP-1R agonist cAMP stimulation assay (HEK293/GLP1R/CRE-LUC cells)
Type: cell-based
Conditions: 30 min incubation, read-out: GLP1R cAMP Stimulation DR: EC50
Experimental: Activation of GLP-1 receptor is known to stimulate cyclic AMP (cAMP) production in cells which indicates primary coupling to the Gαs subunit of the G protein heterotrimeric complex.
To optimize functional activity directed toward Gαs coupling, a HEK293/CRELuc cell line developed by HDB stably expressing the GLP-1 Receptor was used. 200× concentration of compound working solutions were prepared (Agilent Technologies Bravo) with 1/2 log serial dilution in 384-well Echo LDV plate (Labcyte, Cat #LP-0200). 50 nL/well 200× concentration of compound working solutions were moved to 384-well white low volume plate (Greiner, Cat #784075) using Labcyte ECHO550. 1×10^5 cells/mL HEK293/GLP1R/CRE-LUC (HD Biosciences) cell suspensions prepared with assay buffer [DPBS containing 0.5 mM IBMX (Sigma,Cat #I5879) and 0.1% BSA (GENVIEW, Cat #FA016-100 g)], 10 uL cell suspensions were added to each well of previous generated assay plate which already contains 50 nl compound at 200× concentration using ThermoFisher Multidrop Combi (1000cells/well). Seal the plate and incubate at 37° C. with 5% CO2 for 30 min.
After incubation the CAMP assay signal was generated using cAMP dynamic 2 Kit (Cisbio). 5 μL cAMP-d2 working solution was added to each well, followed with 5 μL Anti-cAMP antibody-cryptate working solution added to each well using ThermoFisher Multidrop Combi. Incubate at room temperature for 1 hour protected from light. Read the fluorescence at 665 and 615 nm with Reader PerkinElmer En Vision.

Chain of GLP-1 Receptor (P43220 24-463): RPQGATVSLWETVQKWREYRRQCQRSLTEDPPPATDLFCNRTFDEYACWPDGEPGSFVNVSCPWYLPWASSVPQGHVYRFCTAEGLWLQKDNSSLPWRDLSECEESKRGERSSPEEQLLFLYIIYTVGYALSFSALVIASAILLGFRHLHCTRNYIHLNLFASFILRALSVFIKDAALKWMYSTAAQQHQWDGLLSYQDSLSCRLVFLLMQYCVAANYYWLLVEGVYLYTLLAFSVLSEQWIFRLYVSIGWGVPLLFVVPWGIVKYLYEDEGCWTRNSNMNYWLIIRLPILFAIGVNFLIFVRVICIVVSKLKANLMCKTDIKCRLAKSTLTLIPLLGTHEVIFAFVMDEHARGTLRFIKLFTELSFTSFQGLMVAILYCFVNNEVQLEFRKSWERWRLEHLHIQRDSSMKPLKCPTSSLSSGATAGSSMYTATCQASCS

| SMILES | EC50 [nM] |
| --- | --- |
| O=C(O)c1ccc2nc(CN3CCC(c4cccc5c4OCC(c4ccc(F)cc4)O5)CC3)n(C[C@@H]3CCO3)c2n1 (stereo partly drawn) [Compound 117a, 2-((4-(2-(4-fluorophenyl)-2,3-dihydrobenzo[b][1,4]dioxin-5-yl)piperidin-1-yl)methyl)-3-(((S)-oxetan-2-yl)methyl)-3H-imidazo[4,5-b]pyridine-5-carboxylic acid] | 0.2 to 20 |
| CC1(c2ccc(Cl)cc2F)COc2c(cccc2C2CCN(Cc3nc4ccc(C(=O)O)nc4n3C[C@@H]3CCO3)CC2)O1 (stereo partly drawn) [Compound 127a, 2-((4-(2-(4-chloro-2-fluorophenyl)-2-methyl-2,3-dihydrobenzo[b][1,4]dioxin-5-yl)piperidin-1-yl)methyl)-3-((S)-oxetan-2-ylmethyl)-3H-imidazo[4,5-b]pyridine-5-carboxylic acid] | 0.2 to 20 |
| O=C(O)c1ccc2nc(CN3CCC(c4cccc5c4OCC(c4ccccc4F)O5)CC3)n(C[C@@H]3CCO3)c2n1 (stereo partly drawn) [Compound 109a, 2-((4-(2-(2-fluorophenyl)-2,3-dihydrobenzo[b][1,4]dioxin-5-yl)piperidin-1-yl)methyl)-3-(((S)-oxetan-2-yl)methyl)-3H-imidazo[4,5-b]pyridine-5-carboxylic acid] | 20 to 200 |
| N#Cc1ccc([C@H]2COc3c(cccc3C3CCN(Cc4nc5ccc(C(=O)O)nc5n4C[C@@H]4CCO4)CC3)O2)cc1 [Compound 118c, 2-((4-((S)-2-(4-cyanophenyl)-2,3-dihydrobenzo[b][1,4]dioxin-5-yl)piperidin-1-yl)methyl)-3-(((S)-oxetan-2-yl)methyl)-3H-imidazo[4,5-b]pyridine-5-carboxylic acid] | 20 to 200 |
| O=C(O)c1ccc2nc(CN3CCC(c4cccc5c4OCC(c4ccccc4)C5)CC3)n(C[C@@H]3CCO3)c2n1 (stereo partly drawn) [Compound 103a, 3-(((S)-oxetan-2-yl)methyl)-2-((4-(3-phenylchroman-8-yl)piperidin-1-yl)methyl)-3Himidazo[4,5-b]pyridine-5-carboxylic acid] | 0.2 to 20 |
| O=C(O)c1ccc2nc(CN3CCN(c4cccc5c4OCC(c4ccc(Cl)cc4F)C5)CC3)n(C[C@@H]3CCO3)c2n1 (stereo partly drawn) [Compound 121a, 2-((4-(3-(4-Chloro-2-fluorophenyl)chroman-8-yl)piperazin-1-yl)methyl)-3-(((S)oxetan-2-yl)methyl)-3H-imidazo[4,5-b]pyridine-5-carboxylic acid] | 20 to 200 |
| O=C(O)c1ccc2nc(CN3CCC(c4cccc5c4CCN(c4ccc(Cl)cc4)C5)CC3)n(C[C@@H]3CCO3)c2n1 [Compound 126a] | > 200 |
| O=C(O)c1ccc2nc(CN3CCC(c4cccc5c4OCC(c4cccc(Cl)c4)O5)CC3)n(C[C@@H]3CCO3)c2n1 (stereo partly drawn) [Compound 112a, 2-((4-(2-(3-chlorophenyl)-2,3-dihydrobenzo[b][1,4]dioxin-5-yl)piperidin-1-yl)methyl)-3-(((S)-oxetan-2-yl)methyl)-3H-imidazo[4,5-b]pyridine-5-carboxylic acid] | 0.2 to 20 |
| O=C(O)c1ccc2nc(CN3CCC(c4cccc5c4OCC(c4ccc(Cl)cc4F)C5)CC3)n(C[C@@H]3CCO3)c2n1 (stereo partly drawn) [Compound 106a, 2-((4-(3-(4-chloro-2-fluorophenyl)chroman-8-yl)piperidin-1-yl)methyl)-3-(((S)-oxetan-2-yl)methyl)-3H-imidazo[4,5-b]pyridine-5-carboxylic acid] | 0.2 to 20 |
| O=C(O)c1ccc2nc(CN3CCC(c4cccc5c4OCC(c4ccc(Cl)cc4F)O5)CC3)n(C[C@@H]3CCO3)c2n1 (mixture of isomers) [Compound 104a, 2-((4-(2-(4-Chloro-2-fluorophenyl)-2,3-dihydrobenzo[b][1,4]dioxin-5-yl)piperidin-1-yl)methyl)-3-((S)-oxetan-2-ylmethyl)-3H-imidazo[4,5-b]pyridine-5-carboxylic acid] | 0.2 to 20 |
| O=C(O)c1ccc2nc(CN3CCC(c4cccc5c4OC(c4ccc(Cl)cc4F)CO5)CC3)n(C[C@@H]3CCO3)c2n1 (single isomer, unassigned) [Compound 130c] | 0.2 to 20 |
| O=C(O)c1ccc2nc(CN3CCN(c4cccc5c4CCC(c4ccc(Cl)cc4F)O5)CC3)n(C[C@@H]3CCO3)c2n1 (stereo partly drawn) [Compound 123a, 2-((4-(2-(4-Chloro-2-fluorophenyl)chroman-5-yl)piperazin-1-yl)methyl)-3-((S)oxetan-2-ylmethyl)-3H-imidazo[4,5-b]pyridine-5-carboxylic acid] | 20 to 200 |
| O=C(O)c1ccc2nc(CN3CCC(c4cccc5c4CCC(c4ccc(Cl)cc4F)O5)CC3)n(C[C@@H]3CCO3)c2n1 (stereo partly drawn) [Compound 105a, 2-((4-(2-(4-chloro-2-fluorophenyl)chroman-5-yl)piperidin-1-yl)methyl)-3-(((S)oxetan-2-yl)methyl)-3H-imidazo[4,5-b]pyridine-5-carboxylic acid] | > 200 |
| O=C(O)c1ccc2nc(CN3CCC(c4cccc5c4OC[C@H](c4ccc(Cl)cc4F)O5)CC3)n(C[C@@H]3CCO3)c2n1 [Compound 104c, 2-((4-((S)-2-(4-chloro-2-fluorophenyl)-2,3-dihydrobenzo[b][1,4]dioxin-5-yl)piperidin-1-yl)methyl)-3-(((S)-oxetan-2-yl)methyl)-3H-imidazo[4,5-b]pyridine-5-carboxylic acid] | 20 to 200 |
| O=C(O)c1ccc2nc(CN3CCC(c4cccc5c4OCC(c4ccc(Cl)c(F)c4)O5)CC3)n(C[C@@H]3CCO3)c2n1 (stereo partly drawn) [Compound 113a, 2-((4-(2-(4-chloro-3-fluorophenyl)-2,3-dihydrobenzo[b][1,4]dioxin-5-yl)piperidin-1-yl)methyl)-3-(((S)-oxetan-2-yl)methyl)-3H-imidazo[4,5-b]pyridine-5-carboxylic acid] | 0.2 to 20 |
| O=C(O)c1ccc2nc(CN3CCN(c4cccc5c4OCC(c4ccc(Cl)cc4F)O5)CC3)n(C[C@@H]3CCO3)c2n1 (stereo partly drawn) [Compound 108a, 2-((4-(2-(4-chloro-2-fluorophenyl)-2,3-dihydrobenzo[b][1,4]dioxin-5-yl)piperazin-1-yl)methyl)-3-((S)-oxetan-2-ylmethyl)-3H-imidazo[4,5-b]pyridine-5-carboxylic acid] | 0.2 to 20 |

Continued, values first:

| EC50 [nM] | SMILES |
| --- | --- |
| ≤ 0.2 | N#Cc1ccc([C@@H]2COc3c(cccc3C3CCN(Cc4nc5ccc(C(=O)O)cc5n4C[C@@H]4CCO4)CC3)O2)cc1 [Compound 129a, 2-((4-((R)-2-(4-Cyanophenyl)-2,3-dihydrobenzo[b][1,4]dioxin-5-yl)piperidin-1-yl)methyl)-1-(((S)-oxetan-2-yl)methyl)-1H-benzo[d]imidazole-6-carboxylic acid] |
| 0.2 to 20 | O=C(O)c1ccc2nc(CN3CCC(c4cccc5c4OCC(c4ccccc4)O5)CC3)n(C[C@@H]3CCO3)c2n1 (stereo partly drawn) [Compound 101a, 3-((S)-oxetan-2-ylmethyl)-2-((4-(2-phenyl-2,3-dihydrobenzo[b][1,4]dioxin-5-yl)piperidin-1-yl)methyl)-3H-imidazo[4,5-b]pyridine-5-carboxylic acid] |
| ≤ 0.2 | O=C(O)c1ccc2nc(CN3CCC(c4cccc5c4OCC(c4ccc(C(F)(F)F)cc4)O5)CC3)n(C[C@@H]3CCO3)c2n1 (stereo partly drawn) [Compound 119a, 2-((4-(2-(4-(trifluoromethyl)phenyl)-2,3-dihydrobenzo[b][1,4]dioxin-5-yl)piperidin-1-yl)methyl)-3-(((S)-oxetan-2-yl)methyl)-3H-imidazo[4,5-b]pyridine-5-carboxylic acid] |
| 0.2 to 20 | O=C(O)c1ccc2nc(CN3CCC(c4cccc5c4OCC(c4ccc(Cl)cc4F)N5)CC3)n(C[C@@H]3CCO3)c2n1 (stereo partly drawn) [Compound 124a, 2-((4-(3-(4-chloro-2-fluorophenyl)-3,4-dihydro-2H-benzo[b][1,4]oxazin-8-yl)piperidin-1-yl)methyl)-3-(((S)-oxetan-2-yl)methyl)-3H-imidazo[4,5-b]pyridine-5-carboxylic acid] |
| ≤ 0.2 | O=C(O)c1ccc2nc(CN3CCC(c4cccc5c4OC[C@@H](c4ccc(Cl)cc4)O5)CC3)n(C[C@@H]3CCO3)c2n1 [Compound 111b, 2-((4-((R)-2-(4-chlorophenyl)-2,3-dihydrobenzo[b][1,4]dioxin-5-yl)piperidin-1-yl)methyl)-3-((S)-oxetan-2-ylmethyl)-3H-imidazo[4,5-b]pyridine-5-carboxylic acid] |
| ≤ 0.2 | Cc1ccc(C2COc3c(cccc3C3CCN(Cc4nc5ccc(C(=O)O)nc5n4C[C@@H]4CCO4)CC3)O2)cc1 (stereo partly drawn) [Compound 116a, 3-(((S)-oxetan-2-yl)methyl)-2-((4-(2-(p-tolyl)-2,3-dihydrobenzo[b][1,4]dioxin-5-yl)piperidin-1-yl)methyl)-3H-imidazo[4,5-b]pyridine-5-carboxylic acid] |
| ≤ 0.2 | O=C(O)c1ccc2nc(CN3CCC(c4cccc5c4OC(c4ccc(Cl)cc4F)CO5)CC3)n(C[C@@H]3CCO3)c2n1 (single isomer, unassigned) [Compound 130b] |
| ≤ 0.2 | O=C(O)c1ccc2nc(CN3CCC(c4cccc5c4OC(c4ccc(Cl)cc4F)CO5)CC3)n(C[C@@H]3CCO3)c2n1 (stereo partly drawn) [Compound 130a, 2-((4-(3-(4-chloro-2-fluorophenyl)-2,3-dihydrobenzo[b][1,4]dioxin-5-yl)piperidin-1-yl)methyl)-3-(((S)-oxetan-2-yl)methyl)-3H-imidazo[4,5-b]pyridine-5-carboxylic acid] |
